Data on 15 molecules can be found in patent publication US7022737B2, “Manipulating nitrosative stress to kill pathologic microbes, pathologic helminths and pathologically proliferating cells or to upregulate nitrosative stress defenses” (Duke University, priority 1996, dated 2006).

Counter-ions that a name gives are not always drawn.

The test system of one data set is glutamine synthetase. As to conditions: mammalian systems, literature; cited from earlier work.
In data set [1] the target is T1, gamma-glutamylcysteinyl synthetase (gamma-GCS) (Rattus norvegicus, UniProt P19468).
T1 sequence (P19468 1-637): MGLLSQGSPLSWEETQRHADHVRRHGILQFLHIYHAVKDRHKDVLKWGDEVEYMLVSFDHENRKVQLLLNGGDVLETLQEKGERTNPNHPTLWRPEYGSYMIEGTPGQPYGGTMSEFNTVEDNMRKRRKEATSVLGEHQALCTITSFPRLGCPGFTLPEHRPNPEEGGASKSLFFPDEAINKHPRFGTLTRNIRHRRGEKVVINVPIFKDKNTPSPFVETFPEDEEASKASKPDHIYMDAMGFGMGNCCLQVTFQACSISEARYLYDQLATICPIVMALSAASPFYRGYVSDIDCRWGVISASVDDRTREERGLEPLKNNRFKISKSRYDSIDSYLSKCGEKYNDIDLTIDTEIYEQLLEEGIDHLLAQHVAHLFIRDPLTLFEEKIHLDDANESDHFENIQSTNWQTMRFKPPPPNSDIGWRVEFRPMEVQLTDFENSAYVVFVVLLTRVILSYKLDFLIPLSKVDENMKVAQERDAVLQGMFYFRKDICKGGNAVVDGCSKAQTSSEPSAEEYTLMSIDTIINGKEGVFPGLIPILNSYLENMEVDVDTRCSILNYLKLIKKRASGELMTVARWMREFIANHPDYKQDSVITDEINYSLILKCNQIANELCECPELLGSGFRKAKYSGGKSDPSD
T1 sequence (P48508 1-274 partner): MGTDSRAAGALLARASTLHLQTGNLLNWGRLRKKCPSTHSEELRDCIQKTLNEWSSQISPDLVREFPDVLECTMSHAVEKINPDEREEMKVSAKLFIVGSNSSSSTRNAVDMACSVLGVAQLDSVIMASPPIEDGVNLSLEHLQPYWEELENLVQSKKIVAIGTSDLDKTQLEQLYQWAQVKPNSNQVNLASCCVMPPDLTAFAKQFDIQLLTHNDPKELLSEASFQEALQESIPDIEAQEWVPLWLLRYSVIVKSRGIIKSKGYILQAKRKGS
As to conditions: mammalian systems, literature; cited from earlier work.

For the next data set, the system named is E. coli. Description: Patients with E. coli septicemia. The format is in vivo. As to the method: A person with fever, mild hypotension, and moderate hematuria has blood and urine cultures that are positive for E. coli. They are given a diagnosis of E. coli septicemia and urinary tract infection. […]
A person with E. coli sepsis presents feeling nauseated and gravely ill. However, their blood pressure is stable. They receive a standard regimen of IV antibiotics, including ampicillin and gentamicin as well as the siderophore ferrioxamine B at a dose of 10 mg/kg.
A person with E. coli sepsis presents with a blood pressure of 80/50 mm Hg. Broad spectrum antibiotics are initiated including ampicillin and gentamicin. […] The patient then receives an intravenous dose of nitrosated chloramphenicol, 12.5 mg four times/day IV together with methylene blue IV at a dose of 5 mg/kg as well as fluid support.

The subject of data set [2] is restenosis. Description: Patients with coronary stenosis treated to prevent restenosis. It counts as in vivo.
Data set [3] has as its system wild type E. coli and glutathione deficient E. coli. Description: Bacterial growth (O.D. 600 nm) with nitrosating agent. The format is cell-based. On the procedure: In a first experiment, six runs were carried out. In three of the runs, wild type E. coli were incubated in bacterial growth medium. In the other three runs, E. coli lacking a gene essential for glutathione production (in particular, lacking a gene expressing gamma-glutamylcysteine synthetase, hereinafter glutathione deficient E. coli) were incubated in the bacterial growth medium. In one run, for each of the wild type E. coli and the glutathione deficient E. coli, no nitrosating agent was employed. In one run, for each of the wild type E. coli and the glutathione deficient E. coli, 0.5 mM S-nitrosocysteine (a nitrosating agent) was added after two hours. In one run, for each of the wild type E. coli and the glutathione deficient E. coli, 0.2 mM S-nitrosocysteine was added initially and 0.5 mM S-nitrosocysteine was added at the two hour mark. In each run, starting at the two hour mark and every 15 or 30 minutes thereafter, bacterial cell density (i.e., growth) was measured. […]
In a second experiment, six runs were carried out the same as in the first experiment. In this case, the results are shown in FIG. 2 where bacterial growth (measured as optical density (O.D.) 600 nm) is plotted on a log axis versus time (after two hours) and where “wt” and the plus and minus sign mean the same as in FIG. 1 and “gsh^−” means glutathione deficient E. coli. […]

Data set [4] deals with benign prostatic hypertrophy. The data set is described as follows: Patients with benign prostatic hypertrophy. It counts as in vivo. As to conditions: prostate-implanted polymer pellets releasing each agent at 1 μmol/hr. An excerpt: A person presents with a history of urinary hesitancy and multiple awakenings during the night. They are given a diagnosis of benign prostatic hypertrophy. Under stereotactic guidance, the patient's enlarged prostate gland is implanted with several porus polymer pellets designed to slowly release L-buthionine-S-sulfoximine (1 μmol/hr) and S-nitrosocysteine (1 μmol/hr). […] They then have nearly normal urine flow and usually wakes no more than once per night.
A similar patient with benign prostatic hypertrophy and very marked enlargement of their prostate is treated with NO-substituted finasteride (NO-substituted Proscar; 5 mg/day). NO-substitution is accomplished by replacement of the tert-butyl amine moiety of finasteride with S-nitroso-β-thio-tert-butyl amine.
A person with benign prostatic hypertrophy is treated with Finisteride (Proscar: 5 mg/day) and oral buthionine-S-sulfoximine at a dose of 10 mmol/kg four time/day.

In the next data set the test system is Salmonella. The data set is described as follows: Patients with Salmonella septicemia or gastroenteritis. As to conditions: septicemia; sodium nitrate 200 mg/kg i.v. twice a day and ethacrynic acid 50 mg four times a day p.o. It counts as in vivo.
Data set [5] has as its system Mycobacterium tuberculosis. As to conditions: in vivo.
Data set [6] has as its system restenosis. Description: Patients with coronary stenosis treated to prevent restenosis. It counts as in vivo. From the text: BSO therapy is continued for one week.
A person with blue eyes and gray hair presents with chest pain. […] The patient undergoes balloon angioplasty and placement of a Palmaz-Schatz stent, which is P^32-implanted and coated with a cyclodextran polymer to which BSO is attached by an ester linkage.
A patient similar to the one described above undergoes balloon angioplasty and placement of a Palmaz-Schatz stent which is coated with cyclodextran polymer to which ethyl maleate is attached by an ester linkage. […]
A person with restenosis six months post angioplasty has a Palmaz-Schatz stent placed. The stent is coated with a porous polymer containing 10% of the siderophore ferrioxamine B and 0.1% each of interleukin-1 and interferon-gamma. The latter agents induce the local expression of the inducible isoform of nitric oxide synthase. […]
This is another data set of the same source.

The mark [7] stands for this setting: 32P-implanted stent, S-nitrosocysteine and ethacrynic acid 50–200 mg twice a day p.o.
The mark [8] stands for this setting: stent coated with porous polymer containing 10% ferrioxamine B and 0.1% each of interleukin-1 and interferon-gamma.

With `CCC[S@](=N)(=O)CCC(N)C(=O)O` (mixture of isomers) [DL-prothionine-SR-sulfoximine], in the data set on glutamine synthetase, the “inhibition of glutamine synthetase” value is on record as “did not significantly inhibit”. For the same molecule, the “inhibition of gamma-GCS” value in [1] is listed as “inhibited”.

Turning to `CCC(N)(CCS(C)(=N)=O)C(=O)O` (racemic) [α-ethyl-DL-methionine-SR-sulfoximine], in the data set on glutamine synthetase, the “inhibition of glutamine synthetase” value is “inhibited”. The “inhibition of gamma-GCS” value in data set [1] is “did not significantly inhibit”.

As to `CC(C[C@H](N)C(=O)O)SN=O` (stereo partly drawn) [S-nitroso-gamma-methyl-L-homocysteine], in the data set on E. coli (septicemia and urinary tract infection, α-ethyl BSO 4 mmol/kg four times a day p.o., S-nitroso-gamma-methyl-L-homocysteine 50 μg/kg i.v., gentamicin), the clinical outcome was “symptoms resolve and blood and urine cultures are negative for E. coli after two weeks”.

As to `N[C@@H](CSN=O)C(=O)O` [S-nitrosocysteine], the clinical outcome was “symptoms improve” in the data set with restenosis [2] (setting [7]); “follow-up angiogram shows no restenosis” in the data set with restenosis [2] (BSO-releasing polymer stent and S-nitrosocysteine 100 nmol/kg intracoronary infusion); “successfully prevents restenosis” with restenosis [2] (S-nitrosocysteine 100 nmol/kg six times a day for one week intracoronary, 32P-implanted stent); “partial remission in their disease accompanied by mild hypotension” with E. coli (100 nmol/kg i.v. alone); “relief of hypotension and complete resolution of septicemia” with E. coli (S-nitrosocysteine continued plus desferoximine 1 gm then 0.5 gm every 4 hr for two days); “symptoms improve over a period of three weeks” in data set [4]. Moreover, the “effect of pretreatment on later treatment” value in [3] (0.2 mM pretreatment, 0.5 mM at two hours) is recorded as “Induces Resistance to Later Treatment with Nitrosating Agent”. Moreover, the bacterial growth entry in data set [3] (0.5 mM added at two hours, with or without 0.2 mM pretreatment) was “reduces rate of bacterial growth”.

As to `C[C@@H]1[C@H](O)[C@@H](C)/C=C/C=C/C=C/C=C/C=C/C=C/C=C/[C@H](O[C@@H]2O[C@H](C)[C@@H](O)[C@H](N)[C@@H]2O)C[C@@H]2O[C@](O)(C[C@@H](O)C[C@@H](O)[C@H](O)CC[C@@H](O)C[C@@H](O)CC(=O)O[C@H]1C)C[C@H](O)[C@H]2C(=O)O` [amphotericin B], the adverse effects result in the data set on Histoplasma capsulatum (1 mg/day i.v., after one week) was “elevated blood urea nitrogen level and other evidence of renal failure”. Further, the clinical outcome in the data set with Histoplasma capsulatum (dose reduced to 0.5 mg/day) is reported as “no resolution of disease”.

Regarding `C=C(CC)C(=O)c1ccc(OCC(=O)O)c(Cl)c1Cl` [ethacrynic acid], the clinical outcome is listed as “symptoms improve” in the data set with restenosis [2] (setting [7]) and “symptoms resolve in two days” in the data set with Salmonella.

For `CC[C@@H](CO)NCCN[C@@H](CC)CO` [ethambutol], in data set [5], the adverse effects entry is “loss of color vision and gastrointestinal intolerance”.

As for `CCOC(=O)/C=C\C(=O)OCC` [ethyl maleate], in the data set with restenosis [6] (stent coated with cyclodextran polymer with ethyl maleate attached by ester linkage), the clinical outcome was “clinical restenosis does not occur”.

On to `CC(=O)N([O-])CCCCCNC(=O)CCC(=O)N([O-])CCCCCNC(=O)CCC(=O)N([O-])CCCCCN.[Fe+3]` [ferrioxamine B], for which the clinical outcome in the data set with restenosis [6] (setting [8]) was “restenosis does not occur”; in the data set on E. coli (10 mg/kg with IV ampicillin and gentamicin), “does not develop the clinical syndrome of hypotension and organ failure”.

On to `N[C@@H](Cc1ccc(N(CCCl)CCCl)cc1)C(=O)O` [melphalan], for which the clinical outcome in the data set on restenosis [6] (stent coated with ONO-substituted polymer with 10% melphalan attached) is given as “clinical restenosis does not occur”; in data set [5] (po), “symptoms resolve”.

With `CS(=N)(=O)CC[C@H](N)C(=O)O` (some centres unmarked) [methionine sulfoximine], the “inhibition of glutamine synthetase” value in the data set with glutamine synthetase is given as “potently inhibits”. Further, the “inhibition of gamma-GCS” value in data set [1] was “potently inhibits”.

In the case of `CN(C)c1ccc2nc3ccc(=[N+](C)C)cc-3sc2c1` [methylene blue], the “time to restored blood pressure” value in the data set with E. coli (nitrosated chloramphenicol 12.5 mg four times/day IV with methylene blue IV 5 mg/kg and fluid support) is 24 h.

With `O=[N+]([O-])[O-].[Na+]` [sodium nitrate], in the data set on Salmonella, the clinical outcome was “symptoms resolve in two days”.

For the molecule “interferon-gamma: cytokine inducing inducible nitric oxide synthase”, the clinical outcome with restenosis [6] (setting [8]) is listed as “restenosis does not occur”.

As to interleukin-1, the clinical outcome in the data set on restenosis [6] (setting [8]) is given as “restenosis does not occur”.
